Publication PMC8779355, “In Silico and In Vitro Structure–Activity Relationship of Mastoparan and Its Analogs” (Molecules, 2022)
Values after ≈ are worked out from the molar mass of the structure shown. Residues, ends and D or L forms follow the SMILES beside them.

Experiments:
Details in all cases: nutrient broth, 1 × 10^5 CFU/mL, peptide 0.1 to 50 μg/mL, O.D.600 at 18 h, MIC = growth inhibition greater than 90%, three independent experiments in triplicate
[1] = test system: P. aeruginosa ATCC 27,853 (DMST 4739); format: cell-based
Description: (§1) The biological activities of MpVT and its analogs were investigated by assaying antimicrobial activities and by studying the hemolysis activity. The minimal inhibitory concentrations (MIC) of the peptides were determined based on methods described by Anunthawan et al.. […] The MpVT4-7 could not detect antibacterial activity when using a peptide concentration lower than 50 μg/mL. The E. coli strains that were the most susceptible against MpVT peptides were selected for visualizing the bacterial morphology when treated with these peptides using a scanning electron microscope. The normal and abnormal morphologies of bacteria cells were visualized after 60 min treatment with the MpVT peptides (Figure 6).
(§2) The microorganisms; Staphylococcus auerus ATCC 27,853 (DMST 4739), Staphylococcus auerus ATCC 25923, Bacillus subtilis ATCC663, Escherichia coli 0157:H7, Escherichia coli DH5α, and Klebsiella pneumoniae ATCC27736 (DMST4739) were used to determine the MIC of MpVT and its analogs. The bacterial strains were inoculated to enter their log phases, and then the suspension was diluted in nutrient broth. The microorganisms were prepared at a final concentration of 1 × 10^5 CFU/mL. The peptides’ concentrations, ranging from 0.1 to 50 μg/mL, were determined. Serial doubling dilutions of various concentrations of MpVTs were made into a nutrient broth to a final volume of 100 μL in each well of a 96-well plate. A% inhibition = 100 − (O.D.600 at 18 h − O.D.600 at immediate treatment × 100/O.D.600 at […] of control − O.D.600 at 18 h of control − O.D.600 at immediate treatment of control). (1)

[2] = test system: S. aureus ATCC25923; format: cell-based, Staphylococcus auerus
Description: as §1, §2

[3] = test system: B. subtilis ATCC663; format: cell-based, Bacillus subtilis
Description: as §1, §2

[4] = test system: E. coli 0157:H7; format: cell-based, Escherichia coli
Description: as §1, §2

[5] = test system: E. coli DH5α; format: cell-based, Escherichia coli
Description: as §1, §2

[6] = test system: K. pneumoniae ATCC27736 (DMST4739); format: cell-based, Klebsiella pneumoniae
Description: as §1, §2

Compound	MIC [1] [µg/mL]	MIC [2] [µg/mL]	MIC [3] [µg/mL]	MIC [4] [µg/mL]	MIC [5] [µg/mL]	MIC [6] [µg/mL]
CC[C@H](C)[C@H](N)C(=O)N[C@@H](CC(N)=O)C(=O)N[C@@H](CC(C)C)C(=O)N[C@@H](CCCCN)C(=O)N[C@@H](C)C(=O)N[C@H](C(=O)N[C@@H](C)C(=O)N[C@@H](C)C(=O)N[C@@H](Cc1ccccc1)C(=O)N[C@@H](C)C(=O)N[C@@H](CCCCN)C(=O)N[C@@H](CCCCN)C(=O)N[C@@H](Cc1ccccc1)C(=O)N[C@H](C(=O)O)[C@@H](C)CC)[C@@H](C)CC [MpVT1] (H-INLKAIAAFAKKFI-OH)	6.25 (≈ 4.04 µM)	12.50 (≈ 8.08 µM)	3.125 (≈ 2.02 µM)	6.25 (≈ 4.04 µM)	0.39 (≈ 0.252 µM)	6.25 (≈ 4.04 µM)
CC[C@H](C)[C@H](N)C(=O)N[C@@H](CC(N)=O)C(=O)N[C@@H](CC(C)C)C(=O)N[C@@H](CCCCN)C(=O)N[C@@H](C)C(=O)N[C@H](C(=O)N[C@@H](C)C(=O)N[C@@H](C)C(=O)N[C@@H](Cc1ccccc1)C(=O)N[C@@H](C)C(=O)N[C@@H](CCCCN)C(=O)N[C@@H](C)C(=O)N[C@@H](CC(C)C)C(=O)N[C@H](C(=O)O)[C@@H](C)CC)[C@@H](C)CC [MpVT3] (H-INLKAIAAFAKALI-OH)	6.25 (≈ 4.29 µM)	50.00 (≈ 34.3 µM)	12.50 (≈ 8.58 µM)	50.00 (≈ 34.3 µM)	0.78 (≈ 0.535 µM)	25.00 (≈ 17.2 µM)
CC[C@H](C)[C@H](NC(=O)[C@H](Cc1ccccc1)NC(=O)[C@H](CCCCN)NC(=O)[C@H](CCCCN)NC(=O)[C@H](C)NC(=O)[C@H](Cc1ccccc1)NC(=O)[C@H](C)NC(=O)[C@H](C)NC(=O)[C@@H](NC(=O)[C@H](C)NC(=O)[C@@H](N)CCCCN)[C@@H](C)CC)C(=O)O [MpVT4] (H-KAIAAFAKKFI-OH)	25.0 (≈ 20.7 µM)	>50.00	>50.00	>50.00	25.00 (≈ 20.7 µM)	>50.00
CC[C@H](C)[C@H](NC(=O)[C@H](Cc1ccccc1)NC(=O)[C@H](Cc1ccccc1)NC(=O)[C@H](CCCCN)NC(=O)[C@H](CCCCN)NC(=O)[C@H](C)NC(=O)[C@H](Cc1ccccc1)NC(=O)[C@H](C)NC(=O)[C@H](C)NC(=O)[C@@H](NC(=O)[C@H](C)NC(=O)[C@@H](N)CCCCN)[C@@H](C)CC)C(=O)O [MpVT5] (H-KAIAAFAKKFFI-OH)	>50.00	>50.00	>50.00	>50.00	6.25 (≈ 4.61 µM)	>50.00
CC[C@H](C)[C@H](NC(=O)[C@H](Cc1ccccc1)NC(=O)[C@H](CC(C)C)NC(=O)[C@H](C)NC(=O)[C@H](CCCCN)NC(=O)[C@H](C)NC(=O)[C@H](Cc1ccccc1)NC(=O)[C@H](C)NC(=O)[C@H](C)NC(=O)[C@@H](NC(=O)[C@H](C)NC(=O)[C@@H](N)CCCCN)[C@@H](C)CC)C(=O)O [MpVT6] (H-KAIAAFAKALFI-OH)	>50.00	>50.00	>50.00	>50.00	12.50 (≈ 9.89 µM)	>50.00
CC[C@H](C)[C@H](NC(=O)[C@H](Cc1ccccc1)NC(=O)[C@H](CC(C)C)NC(=O)[C@H](CCCCN)NC(=O)[C@H](C)NC(=O)[C@H](C)NC(=O)[C@H](Cc1ccccc1)NC(=O)[C@H](C)NC(=O)[C@H](C)NC(=O)[C@@H](NC(=O)[C@H](C)NC(=O)[C@@H](N)CCCCN)[C@@H](C)CC)C(=O)O [MpVT7] (H-KAIAAFAAKLFI-OH)	>50.00	>50.00	50.00 (≈ 39.6 µM)	>50.00	6.25 (≈ 4.95 µM)	>50.00
CC[C@H](C)[C@H](N)C(=O)N[C@@H](CC(N)=O)C(=O)N[C@@H](CC(C)C)C(=O)N[C@@H](CCCCN)C(=O)N[C@@H](C)C(=O)N[C@H](C(=O)N[C@@H](C)C(=O)N[C@@H](C)C(=O)N[C@@H](Cc1ccccc1)C(=O)N[C@@H](C)C(=O)N[C@@H](CCCCN)C(=O)N[C@@H](CCCCN)C(=O)N[C@@H](CC(C)C)C(=O)N[C@H](C(=O)O)[C@@H](C)CC)[C@@H](C)CC [MpVT] (H-INLKAIAAFAKKLI-OH)	25.00 (≈ 16.5 µM)	50.00 (≈ 33 µM)	25.00 (≈ 16.5 µM)	50.00 (≈ 33 µM)	3.125 (≈ 2.06 µM)	25.00 (≈ 16.5 µM)
